Results taken from patent US20230135317A1, “COSMETIC FORMULATION FOR TOPICAL ADMINISTRATION COMPRISING NOVEL PEPTIDES THAT IMPROVE APPEARANCE AND REGENERATION OF SKIN” (ASC REGENITY LTD., priority 2020, published 2023).
No end group written: not given here.

What was measured:
[1] = tested on: facial skin; test: Nine-month long-term study 2 (stem cell homeostasis module peptides); type: in vivo, human; conditions: nine months; peptide tested with the other modules of TFC8-D; carrier in SEQ ID NO: 3 and 4 is PEG 35 kDa; sequence difference p-value <5%
[2] = clinical phase III (Gunter & MacHens, 2012); cited from earlier work

| Molecule | frequency of reported product performance decline (comparison) [1] | clinical outcome [2] |
| --- | --- | --- |
| (Z1)-LNPSECPKTVLGAEYGKTLDASYSTAEAENHVRL (not fully specified (N-terminus); printed as (Z1)-LNPSECPKTVLGAEYGKTLDASYSTAEAENHVRL) [SEQ ID NO: 3, Z1 carrier at N-terminus; as tested a polyethyleneglycol with a molecular weight of 35 kDa] | lower for SEQ ID NO: 3 than for SEQ ID NO: 1 |  |
| LNPSECPKTVLGASTSTLDASYSTAEAENHVRL (peptide that stimulates the Wnt beta-catenin signaling pathway) [SEQ ID NO: 2, peptide that stimulates Wnt/β-catenin signalling] | more strongly associated with a decline in product performance during the study period than the sequence of SEQ ID NO: 1 |  |
| Z1-LNPSECPKTVLGASTSTLDASYSTAEAENHVRL (not fully specified (N-terminus); printed as Z1-LNPSECPKTVLGASTSTLDASYSTAEAENHVRL) [SEQ ID NO: 4, Z1 carrier at N-terminus; as tested a polyethyleneglycol with a molecular weight of 35 kDa] | lower for SEQ ID NO: 4 than for SEQ ID NO: 2 |  |
| Juvista: TGF beta 3 drug (protein, UniProt P10600 301-412, looked up, Transforming growth factor beta-3, TGF beta 3 drug) Transforming growth factor …: ALDTNYCFRNLEENCCVRPLYIDFRQDLGWKWVHEPKGYYANFCSGPCPYLRSADTTHSTVLGLYNTLNPEASASPCCVPQDLEPLTILYYVGRTPKVEQLSNMVVKSCKCS |  | failure of a clinical phase III study |
